US9725442B2, “Heterocyclic derivative having PGD2 receptor antagonist activity” (Shionogi & Co., Ltd., priority 2011, dated 2017)
Where two headings read alike, the source gives them in different places.

Experiments:
CRTH2 = CRTH2 (Homo sapiens (Human), UniProt Q9Y5Y4); test: CRTH2 receptor binding inhibitory activity ([3H]-PGD2 displacement, membranes of CRTH2-expressing K562 cell); conditions: [3H]-PGD2 displacement, membrane of CRTH2-expressing K562 cell, read-out: Ki
Experimental: Cell membrane was prepared from CRTH2-expressing K562 cell. The cell membrane (20 μg/well) was mixed with reaction buffer (50 mM Tris/HCl, pH 7.4, 10 mM MgCl2). Then, [^3H]-PGD2 was added to the mixture and incubated for 60 min at room temperature. […] Then, the mixture was filtrated with glass paper immediately. The filter paper was washed several times and radio activity on the filter was measured. Specific binding was defined as difference between total and non-specific binding (radio activity with 10 μM PGD2). Ki values for each compound were calculated from displacement curve.

Human DP1 receptor = Human DP1 receptor (Homo sapiens (Human), UniProt Q13258); test: Human DP1 inhibitory activity in DP1-expressing cell (PGD2-induced cAMP); assay type: cell-based
Sequence of Human DP1 receptor (Q13258 whole entry): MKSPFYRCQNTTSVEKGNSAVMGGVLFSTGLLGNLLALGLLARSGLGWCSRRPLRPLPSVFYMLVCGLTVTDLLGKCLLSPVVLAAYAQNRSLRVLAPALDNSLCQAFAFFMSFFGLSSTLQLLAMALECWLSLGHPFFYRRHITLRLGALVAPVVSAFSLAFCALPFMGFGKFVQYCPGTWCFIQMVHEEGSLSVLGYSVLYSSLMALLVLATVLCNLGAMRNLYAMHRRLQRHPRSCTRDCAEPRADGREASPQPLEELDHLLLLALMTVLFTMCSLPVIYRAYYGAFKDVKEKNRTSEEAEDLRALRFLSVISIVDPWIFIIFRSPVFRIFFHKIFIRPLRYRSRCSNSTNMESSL
Experimental: Compounds were categorized as AA (cAMP is less than 100 nM) and A (cAMP is more than 100 nM and less than 5000 nM) as shown in Table 99 and 100.

[1] = CRTH2 receptor binding, categorized AAAA/AAA
[2] = category of cAMP IC50, human DP1 receptor expressing Jurkut cell
[3] = IC50 of PGD2 (60 nM)-induced cAMP increase, human DP1 receptor expressing Jurkut cell

Sequence of CRTH2 (Q9Y5Y4 whole entry): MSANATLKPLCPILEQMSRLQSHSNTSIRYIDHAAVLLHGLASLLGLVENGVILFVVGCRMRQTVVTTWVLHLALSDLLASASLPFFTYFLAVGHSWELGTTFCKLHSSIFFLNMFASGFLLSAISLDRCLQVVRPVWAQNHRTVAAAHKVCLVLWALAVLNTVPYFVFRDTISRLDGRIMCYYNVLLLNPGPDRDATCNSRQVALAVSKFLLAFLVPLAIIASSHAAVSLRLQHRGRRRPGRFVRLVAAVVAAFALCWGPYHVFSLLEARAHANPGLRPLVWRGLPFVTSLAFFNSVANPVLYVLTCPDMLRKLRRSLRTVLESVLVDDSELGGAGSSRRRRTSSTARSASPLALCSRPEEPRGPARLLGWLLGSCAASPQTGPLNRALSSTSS

Row | Ki (CRTH2; [1]) [nM] | IC50 (Human DP1 receptor; [2]) [nM] | IC50 (Human DP1 receptor; [3]) [nM] | Ki (CRTH2) [nM] | SMILES
1 | < 100 | 100 to 5000 | – | – | CCOc1ccc(S(=O)(=O)N2C[C@H](n3nc(CC(=O)O)c4ccccc43)[C@@](C)(F)C2)cn1 (racemic) [Compound I-207]
2 | < 100 | 100 to 5000 | – | – | COc1ccc(S(=O)(=O)N2C[C@H](n3nc(CC(=O)O)c4ccccc43)[C@@](C)(F)C2)cn1 (racemic) [Compound I-208]
3 | < 100 | 100 to 5000 | – | – | C[C@]1(F)CN(S(=O)(=O)c2ccc(F)cc2)C[C@@H]1n1nc(CC(=O)O)c2ccccc21 (racemic) [Compound I-227]
4 | < 100 | < 100 | – | – | CCOc1ccc(S(=O)(=O)N2C[C@H](n3nc(CC(=O)O)c4ccccc43)[C@@](C)(F)C2)cc1 (racemic) [Compound I-228]
5 | 100 to 5000 | 100 to 5000 | – | – | CCOc1ccc(S(=O)(=O)N2C[C@@H](C)[C@@H](n3nc(C(O)C(=O)O)c4ccccc43)C2)cc1 (single isomer, unassigned) [Compound I-306]
6 | 100 to 5000 | 100 to 5000 | – | – | CCOc1ccc(S(=O)(=O)N2C[C@@H](C)[C@@H](n3nc(C(O)C(=O)O)c4ccccc43)C2)cc1 (single isomer, unassigned) [Compound I-307]
7 | 100 to 5000 | 100 to 5000 | – | – | CC(C)Oc1ccc(S(=O)(=O)N2CC[C@@H](n3nc(CC(=O)O)c4ccc(F)cc43)[C@H]2C)cc1 [Compound I-1]
8 | 100 to 5000 | 100 to 5000 | – | – | CC(C)Oc1ccc(S(=O)(=O)N2C[C@H](n3nc(CC(=O)O)c4ccc(F)cc43)C[C@H]2C(N)=O)cc1 [Compound I-2]
9 | 100 to 5000 | 100 to 5000 | 350 | – | CC(C)Oc1ccc(S(=O)(=O)N2C[C@H](n3nc(CC(=O)O)c4ccc(F)cc43)C[C@@H]2C(N)=O)cc1 [Compound I-3]
10 | 100 to 5000 | 100 to 5000 | – | 320 | CNC(=O)[C@@H]1C[C@@H](n2nc(CC(=O)O)c3ccc(F)cc32)CN1S(=O)(=O)c1ccc(OC(C)C)cc1 [Compound I-4]
11 | 100 to 5000 | 100 to 5000 | – | – | CC(C)Oc1ccc(S(=O)(=O)N2C[C@H](n3nc(CC(=O)O)c4ccc(F)cc43)C[C@H]2C(=O)N(C)C)cc1 [Compound I-5]
12 | 100 to 5000 | 100 to 5000 | – | – | CC(C)NC(=O)[C@@H]1C[C@@H](n2nc(CC(=O)O)c3ccc(F)cc32)CN1S(=O)(=O)c1ccc(OC(C)C)cc1 [Compound I-6]
13 | < 100 | 100 to 5000 | – | – | CC(C)Oc1ccc(S(=O)(=O)N2C[C@@H](n3nc(CC(=O)O)c4ccc(F)cc43)C[C@H]2C)cc1 [Compound I-8]
14 | < 100 | 100 to 5000 | – | 8.2 | CC(C)Oc1ccc(S(=O)(=O)N2C[C@H](n3nc(CC(=O)O)c4ccc(F)cc43)C[C@H]2C)cc1 [Compound I-10]
15 | 100 to 5000 | < 100 | 99 | – | CC(C)Oc1ccc(S(=O)(=O)N2C[C@H](n3nc(CC(=O)O)c4ccc(F)cc43)C[C@@H]2CO)cc1 [Compound I-11]
16 | < 100 | 100 to 5000 | – | – | CC(C)Oc1ccc(S(=O)(=O)N2C[C@H](n3nc(CC(=O)O)c4ccc(F)cc43)C[C@H]2CF)cc1 [Compound I-12]
17 | < 100 | < 100 | – | – | CC(C)Oc1ccc(S(=O)(=O)N2C[C@H](n3nc(CC(=O)O)c4ccc(F)cc43)C[C@@H]2CF)cc1 [Compound I-13]
18 | < 100 | 100 to 5000 | – | – | CC(C)Oc1ccc(S(=O)(=O)N2C[C@H](n3nc(CC(=O)O)c4ccc(F)cc43)C[C@H]2CC#N)cc1 [Compound I-14]
19 | < 100 | 100 to 5000 | – | 56 | CC(C)Oc1ccc(S(=O)(=O)N2C[C@H](n3nc(CC(=O)O)c4cc(Cl)ccc43)C[C@H]2C)cc1 [Compound I-15]
20 | < 100 | 100 to 5000 | – | – | COC[C@@H]1C[C@@H](n2nc(CC(=O)O)c3ccc(F)cc32)CN1S(=O)(=O)c1ccc(OC(C)C)cc1 [Compound I-16]
21 | < 100 | < 100 | – | – | COC[C@H]1C[C@@H](n2nc(CC(=O)O)c3ccc(F)cc32)CN1S(=O)(=O)c1ccc(OC(C)C)cc1 [Compound I-17]
22 | < 100 | 100 to 5000 | – | – | CC(C)Oc1ccc(S(=O)(=O)N2C[C@H](n3nc(CC(=O)O)c4ccc(F)cc43)C[C@@H]2CC#N)cc1 [Compound I-18]
23 | < 100 | 100 to 5000 | – | – | CC(C)Oc1ccc(S(=O)(=O)N2C[C@H](n3nc(CC(=O)O)c4ccc(F)cc43)C[C@@H]2Cn2ccnc2)cc1 [Compound I-20]
24 | < 100 | < 100 | – | – | CC(C)Oc1ccc(S(=O)(=O)N2C[C@H](n3nc(CC(=O)O)c4ccc(F)cc43)C[C@@H]2C(F)F)cc1 [Compound I-22]
25 | < 100 | 100 to 5000 | – | – | Cc1cccn(C[C@H]2C[C@@H](n3nc(CC(=O)O)c4ccc(F)cc43)CN2S(=O)(=O)c2ccc(OC(C)C)cc2)c1=O [Compound I-23]
26 | < 100 | 100 to 5000 | – | – | CC(C)Oc1ccc(S(=O)(=O)N2C[C@H](n3nc(CC(=O)O)c4ccc(F)cc43)CC2(C)C)cc1 [Compound I-24]

Row | Ki (CRTH2; [1]) [nM] | IC50 (Human DP1 receptor; [2]) [nM] | IC50 (Human DP1 receptor; [3]) [nM] | Ki (CRTH2) [nM] | SMILES
27 | < 100 | 100 to 5000 | – | – | CC(C)Oc1ccc(S(=O)(=O)N2C[C@H](O)[C@@H](n3nc(CC(=O)O)c4ccc(F)cc43)C2)cc1 [Compound I-25]
28 | < 100 | 100 to 5000 | – | – | CC(C)Oc1ccc(S(=O)(=O)N2CC(F)[C@@H](n3nc(CC(=O)O)c4ccc(F)cc43)C2)cc1 (some centres unmarked) [Compound I-26]
29 | < 100 | 100 to 5000 | – | – | CC(C)Oc1ccc(S(=O)(=O)N2CC(=O)C(n3nc(CC(=O)O)c4ccc(F)cc43)C2)cc1 (centres unmarked) [Compound I-27]
30 | 100 to 5000 | < 100 | – | – | CC(C)Oc1ccc(S(=O)(=O)N2CC=C(n3nc(CC(=O)O)c4ccc(F)cc43)C2)cc1 [Compound I-28]
31 | < 100 | < 100 | – | – | CC(C)Oc1ccc(S(=O)(=O)N2C[C@@H](C)[C@@H](n3nc(CC(=O)O)c4ccc(F)cc43)C2)cc1 [Compound I-29]
32 | 100 to 5000 | 100 to 5000 | – | 140 | CO[C@@H]1CN(S(=O)(=O)c2ccc(OC(C)C)cc2)C[C@@H]1n1nc(CC(=O)O)c2ccc(F)cc21 [Compound I-30]
33 | < 100 | < 100 | – | – | C=CC[C@@H]1CN(S(=O)(=O)c2ccc(OC(C)C)cc2)C[C@@H]1n1nc(CC(=O)O)c2ccc(F)cc21 [Compound I-32]
34 | – | – | – | 2.1 | CC(C)Oc1ccc(S(=O)(=O)N2C[C@@H](C)[C@@H](n3nc(CC(=O)O)c4ccc(Cl)cc43)C2)cc1 [Compound I-33]
35 | < 100 | < 100 | – | 77 | CCC[C@@H]1CN(S(=O)(=O)c2ccc(OC(C)C)cc2)C[C@@H]1n1nc(CC(=O)O)c2ccc(F)cc21 [Compound I-34]
36 | < 100 | < 100 | – | – | CC(C)Oc1ccc(S(=O)(=O)N2C[C@@H](C)[C@@H](n3nc(CC(=O)O)c4ccccc43)C2)cc1 [Compound I-35]
37 | < 100 | 100 to 5000 | – | – | CC(C)Oc1ccc(S(=O)(=O)N2C[C@@H](n3nc(CC(=O)O)c4ccc(F)cc43)[C@@H](C)C2)cc1 [Compound I-36]
38 | < 100 | < 100 | – | – | C=C[C@@H]1CN(S(=O)(=O)c2ccc(OC(C)C)cc2)C[C@@H]1n1nc(CC(=O)O)c2ccc(F)cc21 [Compound I-38]
39 | < 100 | < 100 | – | – | CC[C@@H]1CN(S(=O)(=O)c2ccc(OC(C)C)cc2)C[C@@H]1n1nc(CC(=O)O)c2ccc(F)cc21 [Compound I-39]
40 | < 100 | – | – | – | CC(C)Oc1ccc(S(=O)(=O)N2C[C@H](C)[C@@H](n3nc(CC(=O)O)c4cccc(F)c43)C2)cc1 [Compound I-70]
41 | – | < 100 | – | – | Cc1ccc2c(CC(=O)O)nn([C@H]3CN(S(=O)(=O)c4ccc(OC(C)C)cc4)C[C@@]3(C)F)c2c1 [Compound I-89]
42 | – | 100 to 5000 | – | – | CCOc1ccc(S(=O)(=O)N2C[C@@H](n3nc(CC(=O)O)c4ccc(F)cc43)[C@@H](C)[C@@H]2C(N)=O)cc1 [Compound I-154]
43 | – | 100 to 5000 | – | – | CCOc1ccc(S(=O)(=O)N2C[C@@H](C)[C@@H](n3nc(CC(=O)OC(C)C)c4ccccc43)C2)cc1 [Compound I-257]
44 | – | 100 to 5000 | – | – | CC(C)Oc1ccc(S(=O)(=O)N2C[C@H](n3nc(CC(=O)O)c4ccc(F)cc43)C[C@@H]2COCC(O)CO)cc1 (some centres unmarked) [Compound I-281]
45 | – | < 100 | – | – | CCOc1ccc(S(=O)(=O)N2C[C@@H](C)[C@@H](n3nc(C(C)(OC)C(=O)O)c4ccccc43)C2)cc1 (some centres unmarked) [Compound I-286]
46 | – | < 100 | – | – | CCOc1ccc(S(=O)(=O)N2C[C@H](n3nc(CC(=O)O)c4ccccc43)[C@@](C)(F)C2)cc1 [Compound I-309]
47 | – | 100 to 5000 | – | – | CCOc1ccc(S(=O)(=O)N2C[C@H](n3nc(CC(=O)O)c4ccccc43)C[C@H]2C(N)=O)cc1 [Compound I-321]
48 | – | < 100 | – | – | CCOc1ccc(S(=O)(=O)N2C[C@@H](C)[C@@H](n3nc(C(C)(C)C(=O)O)c4ccccc43)C2)cc1 [Compound I-335]
49 | – | 100 to 5000 | – | – | CCOc1ccc(S(=O)(=O)N2C[C@@H](C)[C@@H](n3nc(C(F)C(=O)O)c4ccccc43)C2)cc1 (some centres unmarked) [Compound I-337]
50 | – | 100 to 5000 | – | – | CC(C)Oc1ccc(S(=O)(=O)N2C[C@H](n3nc(CC(=O)O)c4ccc(F)cc43)C[C@@H]2COc2ccccn2)cc1 [Compound I-339]
51 | – | 100 to 5000 | – | – | CC(C)Oc1ccc(S(=O)(=O)N2C[C@H](n3nc(CC(=O)O)c4ccc(F)cc43)C[C@@H]2COc2ccccc2F)cc1 [Compound I-340]
52 | 100 to 5000 | – | – | 100 | CCOc1ccc(S(=O)(=O)N2C[C@@H](n3nc(CC(=O)O)c4ccccc43)[C@@H]3COC[C@@H]32)cc1 [Compound I-367]
